Here are results for 37 compounds from patent US20240174625A1, “COMPOSITIONS AND METHODS FOR TREATING TAUOPATHIES” (The Regents of the University of California, priority 2021, published 2024).

One series has as its target T1, NPEPPS (Homo sapiens, UniProt P55786).
T1 construct: endogenous in cells; host or cells: HEK293T
The series is described as follows: Cell-based NPEPPS activity assay (Q-AMC fluorescence). The conditions noted are these: for EC50: log10 transformed, EC50 = concentration that elevates 50% NPEPPS activity (150% of DMSO baseline), HEK293T cells; for fluorescence change (NPEPPS activity): Q-AMC assay, inhibitors, FIG. 2D. The method, then: HEK293T cells (AATC) were maintained in a complete media containing DMEM (Gibco 11995-065) in the presence of 10% fetal bovine serum (FBS, Gibco 10082147), […] penicillin and 50 μg/ml streptomycin (Gibco 15140163) at 37° C. with 5% CO2. NPEPPS activity assay was conducted in a fresh-prepared minimal medium containing essential amino acids, vitamin, AlbuMax (Invitrogen 11021-029) in 1×HBS buffer. Black wall, clear bottom 384-well assay plates (Greiner EK-30092) were coated with poly-L-ornithine (0.1 mg/ml, Sigma P3655) overnight and washed once with 1×PBS. 15 μl minimal medium was then added to each well. 250 nL of compounds dissolved in OmniSolve methylsulfoxide (dimethyl sulfoxide, DMSO, Sigma MX1456P) were pinned to each well via Biomek FX^P Liquid Handling Automation (Beckman Coulter) from compound source plates, i.e., either pre-made compound libraries or JMM compounds (20-step, 2-fold dilution) dissolved in OmniSolve DMSO prepared via Biomek automation in 384-well clear V-bottom polypropylene microplates (ThermoScientific 50-823-639). Cells were harvested, resuspended in minimal medium, and seeded at 16,500 cells/15 μl/well in the 384-well assay plates. 24 hrs later, 30 μl 200 μM H-Gln-AMC hydrobromide salt (Q-AMC, Bachem #I-1175) in 1×HBS containing 0.1% DMSO was added into each well. The fluorescent signal at excitation/emission wavelengths of 360/460 nm was measured immediately upon Q-AMC addition and 3 hrs post-Q-AMC. The change in fluorescence is measured as a readout of NPEPPS activity.
To identify small molecules that either increase NPEPPS levels or NPEPPS activity, a cell-based NPEPPS activity assay amenable to high-throughput screening (HTS) by adapting a fluorescent peptidase activity assay^2 was developed. Since NPEPPS is one of the only aminopeptidases capable of cleaving glutamine-peptide bonds^3 and the major aminopeptidase responsible for degradation of poly-glutamine sequences in the brain^4, a fluorogenic compound, glutamine-7-amino-4-methylcoumarin (Q-AMC), was selected as a substrate to measure NPEPPS activity. The peptide bond of Q-AMC is hydrolyzed by NPEPPS to release glutamine and a fluorescent product, 7-amino-4-methylcoumarin (AMC), when Q-AMC is added directly to the cell culture media. This change in fluorescence is measured as a readout of aminopeptidase activity (FIG. 2A). Overexpression of NPEPPS in HEK293T cells results in a significant increase in fluorescence, whereas knock-down or chemical inhibition of NPEPPS decrease fluorescence change (FIG. 2B-D), validating that the changes in fluorescence observed in the Q-AMC-based assay directly correlate with changes in NPEPPS activity. A high-throughput (HTS) screen (201,845 compounds) was conducted at the UCLA MSSR core (FIG. 2E). Follow-up assays and chemical clustering identified three series of compounds with distinct chemical clusters (FIG. 2F).
(§1) To investigate the effects of JMM compounds that enhance NPEPPS activity and assess their cellular toxicity, 139 compounds in the JMM series (i.e., JMM001-JMM139) were tested in dose responses (20-step, 2-fold dilution) using NPEPPS activity and viability assays in HEK293T cells. 76 compounds harboring different modifications produce concentration-dependent enhancement on NPEPPS activity compared to DMSO control (FIG. 4). […] A therapeutic index (TI, a ratio of IC50 over EC50) is used to evaluate the relative safety profiles of the compounds. […] 16 JMM compounds show both improved potency and reduced toxicity (EC50<10 μM and TI>10, Table 1).

The subject of the next series is HEK293T cells. The series can be described thus: Cell viability assay (CellTiter Glo). Particulars: for IC50: Homo sapiens, HEK-293T, log10 transformed, IC50 = concentration that suppresses 50% cell viability, HEK293T cells; for Therapeutic index: ratio of IC50 (cell viability) over EC50 (NPEPPS activity). It is filed as cell-based, human. The method, then:
HEK293T cells (AATC) were maintained in complete media and cell viability assay was conducted in a fresh-prepared minimal medium containing essential amino acids, vitamin, AlbuMax (Invitrogen 11021-029) in 1×HBS buffer. White 384-well assay plates (Greiner EK-30080) were coated with poly-L-ornithine (0.1 mg/ml) overnight and washed once with 1×PBS. 15 μl minimal medium was then added to each well. 250 nl of compounds dissolved in OmniSolve DMSO were pinned to each well via Biomek FX^P Liquid Handling Automation from compound source plates. Cells were harvested, resuspended in minimal medium, and seeded at 16,500 cells/15 μl/well in the 384-well assay plates. 24 hrs later, 25 μl/well CellTiter Glo reagent (Promega G7572) was added into each well, and luminescence (0.5 second integration time) was acquired following manufacture's protocol. Luminescence count normalized to DMSO control is used as a readout of cell viability.
as §1

T1 sequence (P55786 whole entry): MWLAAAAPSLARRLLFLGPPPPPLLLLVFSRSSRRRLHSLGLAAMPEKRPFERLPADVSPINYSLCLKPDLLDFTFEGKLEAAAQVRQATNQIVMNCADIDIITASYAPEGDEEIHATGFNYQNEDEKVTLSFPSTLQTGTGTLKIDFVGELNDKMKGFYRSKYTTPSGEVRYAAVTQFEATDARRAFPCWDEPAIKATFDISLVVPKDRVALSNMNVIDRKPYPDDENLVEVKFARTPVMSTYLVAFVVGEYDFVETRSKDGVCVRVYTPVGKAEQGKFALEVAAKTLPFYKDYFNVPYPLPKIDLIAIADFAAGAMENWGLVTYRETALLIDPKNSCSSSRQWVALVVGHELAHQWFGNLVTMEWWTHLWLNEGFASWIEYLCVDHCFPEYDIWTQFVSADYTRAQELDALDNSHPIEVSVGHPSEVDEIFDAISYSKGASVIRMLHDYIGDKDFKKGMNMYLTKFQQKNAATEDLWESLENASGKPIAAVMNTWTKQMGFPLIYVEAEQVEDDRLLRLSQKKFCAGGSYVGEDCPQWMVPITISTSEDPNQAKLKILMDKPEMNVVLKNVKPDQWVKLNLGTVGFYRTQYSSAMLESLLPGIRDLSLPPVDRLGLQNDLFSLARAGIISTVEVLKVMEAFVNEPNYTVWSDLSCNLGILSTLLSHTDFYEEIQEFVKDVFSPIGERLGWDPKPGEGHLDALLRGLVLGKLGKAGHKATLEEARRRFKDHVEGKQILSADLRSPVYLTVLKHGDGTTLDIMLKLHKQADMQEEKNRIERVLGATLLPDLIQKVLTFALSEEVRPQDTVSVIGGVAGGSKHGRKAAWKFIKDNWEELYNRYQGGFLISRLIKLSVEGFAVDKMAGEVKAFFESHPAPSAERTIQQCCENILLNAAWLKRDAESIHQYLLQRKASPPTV

Turning to `O=[N+]([O-])c1ccc(CNc2nsc3ccccc23)cc1` [JMM043], at NPEPPS, the EC50 (usually the concentration that produces a half-maximal response) was 81.3 µM. Moreover, in the series with HEK293T cells, the IC50 (usually the midpoint of a concentration-inhibition curve) was 309 µM and the Therapeutic index came out at 3.79.
For `Brc1ccc(COc2ccc(CNc3nsc4ccc(OCc5ccccc5)cc34)cc2)cc1` [JMM113, 5-(Benzyloxy)-N-(4-((4-bromobenzyl)oxy)benzyl)benzo[d]isothiazol-3-amine], in that order: 4.47 µM, 18.6 µM and 4.18.
The compound `FC(F)(F)c1ccc(CNc2nsc3ccccc23)cc1` [JMM005] showed a half-maximal effective concentration (EC50) at NPEPPS of 34.7 µM. In addition, in the series with HEK293T cells, inhibition was half-maximal at 117 µM (IC50) and the Therapeutic index is reported as 3.42.
Compound `Fc1cccc2c(NCc3ccc(C(F)(F)F)cc3)nsc12` [JMM027] gave an EC50 on NPEPPS of 53.7 µM. In addition, in the series with HEK293T cells, the IC50 is 52.5 µM and the Therapeutic index is 0.98.
Regarding `FC(F)(F)Oc1ccc(CNc2nsc3ccccc23)cc1` [JMM054], the EC50 at NPEPPS was 123 µM. Moreover, in the series with HEK293T cells, it took 132 µM to reach half-maximal inhibition (IC50) and the Therapeutic index is given as 1.08.
For `COc1ccc(CN(C)c2nsc3ccccc23)cc1OC` [JMM068], the EC50 at NPEPPS was 58.9 µM. In addition, in the series on HEK293T cells, inhibition was half-maximal at 132 µM (IC50) and the Therapeutic index was found to be 2.22.
`FC(F)(F)c1ccc(CNc2nsc3ncccc23)cc1` [JMM059]: it took 67.6 µM to reach a half-maximal effect at NPEPPS (EC50). For the same compound, in the series on HEK293T cells, the IC50 is 120 µM and the Therapeutic index worked out at 1.78.
In the case of `O=C1c2ccccc2C(=O)N1c1nsc2cnccc12` [JMM085], the midpoint of inhibition in the series on HEK293T cells, the IC50, lay at 3160 µM.
In turn, `COc1ccc(CNc2ncccn2)cc1OC` [JMM048] gave an EC50 on NPEPPS of 525 µM. Also, in the series with HEK293T cells, the IC50 is 562 µM and the Therapeutic index was 1.09.
On to `c1ccc(COc2ccc(CNc3nsc4ccccc34)cc2)cc1` [JMM014], for which it took 12.9 µM to reach a half-maximal effect on NPEPPS (EC50). In the series with HEK293T cells, the midpoint of inhibition, the IC50, lay at 22.4 µM and the Therapeutic index was 1.75.
Consider `COc1ccc(CNc2noc3ccccc23)cc1OC` [JMM040], for which the 50% effective concentration (EC50) on NPEPPS is 251 µM. In the series with HEK293T cells, the IC50 was 251 µM and the Therapeutic index was 1.00.
The compound `COc1ccc(CNc2ccc(F)cn2)cc1OC` [JMM046] gave an EC50 at NPEPPS of 214 µM. In the series with HEK293T cells, half-maximal inhibition (IC50) was put at 479 µM and the Therapeutic index is listed as 2.24.
As to `FC(F)(F)c1ccc(C(Nc2nsc3ccccc23)c2ccc(C(F)(F)F)cc2)cc1` [JMM051], the EC50 at NPEPPS is 7.08 µM. Further, in the series on HEK293T cells, the IC50 is 14.1 µM and the Therapeutic index was determined as 2.03.
For the compound `COc1ccc(COc2nsc3ccccc23)cc1OC` [JMM104], the EC50 at NPEPPS was 105 µM. In the series on HEK293T cells, inhibition was half-maximal at 63.1 µM (IC50) and the Therapeutic index amounted to 0.60.
On to `CN(Cc1ccc(SC(F)(F)F)cc1)c1nsc2ccccc12` [JMM082], for which, on NPEPPS, the EC50 was 2.63 µM. Moreover, in the series with HEK293T cells, the midpoint of inhibition, the IC50, lay at 75.9 µM and the Therapeutic index is given as 29.32.
`FC(F)(F)Sc1ccc(CNc2nsc3ccc(OCc4ccccc4)cc23)cc1` [JMM096] showed an EC50 at NPEPPS of 10.2 µM. Besides, in the series with HEK293T cells, half-maximal inhibition (IC50) was put at 63.1 µM and the Therapeutic index came to 6.09.
The like results for `FC(F)(F)c1ccc2snc(NCc3ccc(OCc4ccccc4)cc3)c2c1` [JMM134, N-(4-(Benzyloxy)benzyl)-5-(trifluoromethyl)benzo[d]isothiazol-3-amine] were, in that order, 13.8 µM, 257 µM and 18.60.
On to `Fc1ccc(CNc2nsc3ccccc23)cc1` [JMM011], for which the response on NPEPPS was half-maximal at 316 µM (EC50). Besides, in the series on HEK293T cells, half-maximal inhibition (IC50) required 389 µM and the Therapeutic index turned out to be 1.25.
The like results for `Fc1ccccc1COc1ccc(CNc2nsc3ccc(OCc4ccccc4)cc23)cc1` [JMM118, 5-(Benzyloxy)-N-(4-((2-fluorobenzyl)oxy)benzyl)benzo[d]isothiazol-3-amine] were, in that order, 25.7 µM, 15.5 µM and 0.60.
`COc1ccc(CNc2ncnc3ccccc23)cc1OC` [JMM036] showed an IC50 with HEK293T cells of 135 µM.
In the case of `CC(Nc1nsc2ccccc12)c1cccc2ccccc12` (stereo not drawn) [JMM080], the response on NPEPPS was half-maximal at 9.33 µM (EC50). In the series on HEK293T cells, half-maximal inhibition (IC50) was put at 105 µM and the Therapeutic index was 11.09.
In the series on HEK293T cells, `c1ccc(COc2ccc3snc(NCc4ccc(N(Cc5ccccc5)Cc5ccccc5)cc4)c3c2)cc1` [JMM126, 5-(Benzyloxy)-N-(4-(dibenzylamino)benzyl)benzo[d]isothiazol-3-amine] gave an IC50 of 1260 µM.
Turning to `O=C(Nc1nsc2ccccc12)c1ccc(C(F)(F)F)cc1` [JMM007], in the series on HEK293T cells, the midpoint of inhibition, the IC50, lay at 1740 µM.
In the case of `Cc1cc(C)c(COc2ccc(CNc3nsc4ccc(OCc5ccccc5)cc34)cc2)c(C)c1` [JMM123, 5-(Benzyloxy)-N-(4-((2,4,6-trimethylbenzyl)oxy)benzyl)benzo[d]isothiazol-3-amine], the IC50 in the series with HEK293T cells was 661 µM.
`O=C(Nc1nsc2ccccc12)c1ccc2c(c1)OCCO2` [JMM006] had an IC50 in the series on HEK293T cells of 282 µM.
Take `c1ccc(COc2ccc3snc(NCc4ccc(Cc5ccccc5)cc4)c3c2)cc1` [JMM120, N-(4-benzylbenzyl)-5-(benzyloxy)benzo[d]isothiazol-3-amine]: half-maximal inhibition with HEK293T cells (IC50) was put at 1050 µM.
Regarding `COc1ccc(CNc2nccc3ccccc23)cc1OC` [JMM034], inhibition in the series with HEK293T cells was half-maximal at 186 µM (IC50).
In the series with HEK293T cells, `c1ccc(COc2ccc3snc(NC4c5ccccc5-c5ccccc54)c3c2)cc1` [JMM089] showed an IC50 of 3310 µM.
`CS(=O)(=O)N(Cc1ccc(C(F)(F)F)cc1)c1nsc2ccccc12` [JMM071] showed a half-maximal inhibitory concentration (IC50) with HEK293T cells of 10 µM.
`c1ccc(COc2ccc3snc(NCc4ccc(COc5ccccc5)cc4)c3c2)cc1` [JMM124, 5-(Benzyloxy)-N-(4-(phenoxymethyl)benzyl)benzo[d]isothiazol-3-amine] showed an IC50 with HEK293T cells of 724 µM.
`COc1ccc(C[C@H](N)C(=O)N[C@H]2[C@@H](O)[C@H](n3cnc4c(N(C)C)ncnc43)O[C@@H]2CO)cc1` [puromycin, reference compound]: on NPEPPS, the “fluorescence change (NPEPPS activity)” value is reported as “decreases in fluorescence change”.
As to `CC(C)C[C@H](NC(=O)[C@@H](O)[C@H](N)Cc1ccccc1)C(=O)O` [bestatin, reference compound], the “fluorescence change (NPEPPS activity)” value on NPEPPS is recorded as “decreases in fluorescence change”.
In the series with HEK293T cells, `c1ccc2c(CNc3nsc4ccccc34)nccc2c1` [JMM074] gave an IC50 of 1820 µM.
`c1ccc2c(c1)CN(c1nsc3ccccc13)C2` [JMM087] had an IC50 in the series with HEK293T cells of 229 µM.
On the same count and under the same terms, for `c1ccc2c(CNc3nsc4ccccc34)c3ccccc3cc2c1` [JMM018] the value was 9550 µM.
`c1ccc(COc2ccc3snc(NCc4ccc(OCc5ccccc5)c5ccccc45)c3c2)cc1` [JMM116, 5-(Benzyloxy)-N-((4-(benzyloxy)naphthalen-1-yl)methyl)benzo[d]isothiazol-3-amine] gave a concentration for half-maximal inhibition (IC50) with HEK293T cells of 1000 µM.
In turn, `COc1cccc(CNc2nsc3ccccc23)c1` [JMM010] had an IC50 in the series with HEK293T cells of 97.7 µM.
